{"source": "ChEMBL document CHEMBL1201862", "about": "“PubChem BioAssay data set” (2004)", "key": {"Aminopeptidase N": {"target": "T1, Aminopeptidase N (Plasmodium falciparum FcB1/Columbia, UniProt O96935)", "T1 sequence (O96935 whole entry)": "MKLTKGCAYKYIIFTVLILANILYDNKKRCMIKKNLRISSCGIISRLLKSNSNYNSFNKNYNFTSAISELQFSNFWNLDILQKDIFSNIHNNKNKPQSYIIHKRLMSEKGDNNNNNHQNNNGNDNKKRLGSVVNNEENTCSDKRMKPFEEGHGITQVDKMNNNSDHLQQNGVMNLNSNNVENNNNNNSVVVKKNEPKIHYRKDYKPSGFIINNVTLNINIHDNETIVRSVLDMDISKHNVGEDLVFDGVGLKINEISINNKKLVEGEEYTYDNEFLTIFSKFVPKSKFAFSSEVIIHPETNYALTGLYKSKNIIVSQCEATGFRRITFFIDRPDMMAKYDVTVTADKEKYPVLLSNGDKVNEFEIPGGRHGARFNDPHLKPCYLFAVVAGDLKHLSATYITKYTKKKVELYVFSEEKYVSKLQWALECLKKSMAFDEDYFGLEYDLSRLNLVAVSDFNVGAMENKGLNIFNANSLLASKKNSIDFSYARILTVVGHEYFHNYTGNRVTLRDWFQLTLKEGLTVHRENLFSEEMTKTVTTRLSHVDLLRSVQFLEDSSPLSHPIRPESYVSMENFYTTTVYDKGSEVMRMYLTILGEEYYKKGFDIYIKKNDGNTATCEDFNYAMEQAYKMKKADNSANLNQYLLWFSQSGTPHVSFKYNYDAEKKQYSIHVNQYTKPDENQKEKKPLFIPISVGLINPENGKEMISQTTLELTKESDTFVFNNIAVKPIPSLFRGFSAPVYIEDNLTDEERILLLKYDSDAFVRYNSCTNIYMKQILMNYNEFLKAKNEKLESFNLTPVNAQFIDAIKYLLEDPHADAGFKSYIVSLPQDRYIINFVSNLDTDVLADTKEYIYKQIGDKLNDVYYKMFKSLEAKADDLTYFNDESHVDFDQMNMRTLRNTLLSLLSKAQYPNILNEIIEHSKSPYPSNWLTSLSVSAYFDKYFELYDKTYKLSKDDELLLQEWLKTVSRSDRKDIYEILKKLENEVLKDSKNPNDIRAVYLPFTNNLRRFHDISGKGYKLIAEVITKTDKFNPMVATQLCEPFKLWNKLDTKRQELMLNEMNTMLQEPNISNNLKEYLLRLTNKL", "assay": "P. falciparum M1AAP inhibitors, biochemical, fluorogenic H-Leu-NHMec substrate, 1536-well (AID 1445)", "design": "species or system Plasmodium falciparum 3D7, 3D7"}, "[1]": {"assay": "cytotoxicity in HPDE-C7 cells, cell-based, fluorescence, HTS (AID 430)", "assay_type": "functional", "conditions": "Homo sapiens"}, "[2]": {"assay": "cytotoxicity in KRAS-transformed pancreatic duct cells, primary screen, cell-based, fluorescence, HTS (AID 431);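 further: cell line used: HPDE-C7K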", "assay_type": "functional", "conditions": "Homo sapiens"}, "Bcl-2-related protein A1 [3]": {"target": "T2, Bcl-2-related protein A1 (Mus musculus, UniProt Q07440)", "T2 sequence (Q07440 whole entry)": "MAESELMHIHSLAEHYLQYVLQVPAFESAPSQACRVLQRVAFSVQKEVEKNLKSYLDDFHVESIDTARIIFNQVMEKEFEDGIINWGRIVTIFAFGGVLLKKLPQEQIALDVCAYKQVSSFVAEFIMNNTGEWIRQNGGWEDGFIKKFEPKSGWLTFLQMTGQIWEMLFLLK", "assay": "Bfl-1 binding inhibitors, SAR follow-up, biochemical, fluorescence polarization (AID 1070)"}, "[4]": {"target": "Glyceraldehyde-3-phosphate dehydrogenase (Homo sapiens, UniProt P04406)", "sequence (P04406 whole entry)": "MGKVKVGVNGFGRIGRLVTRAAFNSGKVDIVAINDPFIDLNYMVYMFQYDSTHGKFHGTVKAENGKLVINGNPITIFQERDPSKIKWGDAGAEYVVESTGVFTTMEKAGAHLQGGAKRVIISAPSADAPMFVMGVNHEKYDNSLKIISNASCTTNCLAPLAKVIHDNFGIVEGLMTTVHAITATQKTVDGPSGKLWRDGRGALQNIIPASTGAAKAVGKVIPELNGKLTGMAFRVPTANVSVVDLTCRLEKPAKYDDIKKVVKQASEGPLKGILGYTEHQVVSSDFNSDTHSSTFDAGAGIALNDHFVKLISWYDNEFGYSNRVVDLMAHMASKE"}, "Bcl-2-related protein A1 [5]": {"target": "T2, Bcl-2-related protein A1", "assay": "Bfl-1 inhibitors blocking BH3 peptide binding, confirmation, biochemical, TR-FRET, mouse Bfl-1 (AID 621);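 further: TR-FRET binding of GST-Bfl-1 to FITC-labelled Bid peptide via terbium antibody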"}, "[6]": {"assay": "Luminescent dose response cell-based high throughput screening assay for inhibitors of the Janus kinase 2 mutant JAK2V617F. [Related pubchem assays: 1446 (Primary screen.), 1521 (Confirmation assay.), 1486 (Counter screen.)]", "assay_type": "functional"}, "[7]": {"assay": "NIH-3T3 fibroblast cytotoxicity, dose response, cytotoxicity control, cell-based, fluorescence, Alamar Blue, secondary assay (AID 2327);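 further: NIH-3T3 mouse fibroblasts cultured with fluconazole at 8 µg/mL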", "assay_type": "functional"}, "[8]": {"assay": "C. albicans growth with fluconazole, confirmation, fluorescence, retest (AID 2467)", "assay_type": "functional, cell-based"}, "Vero": {"tested_on": "Vero", "assay": "cells", "assay_type": "functional", "conditions": "Chlorocebus sabaeus"}, "[9]": {"assay": "cytotoxicity toward NIH3T3 fibroblasts, dose response, counter-screen, cell-based, ATP luminescence, mouse fibroblasts (AID 2010);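 further: cells exposed to compound for about 90 hours before reading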", "assay_type": "functional"}, "[10]": {"assay": "Luminescence Cell-Based Dose Response HTS to Identify Inhibitors of 5'UTR Stem-Loop Driven Prion Protein mRNA Translation in H4 Neuroglioblastoma Cells. [Related pubchem assays: 1827 (Project Summary), 1813 (Primary HTS)]", "assay_type": "functional"}, "[11]": {"assay": "inhibitors of intracellular T. cruzi replication, confirmation, NIH3T3 host cells, beta-gal luminescence (AID 2044);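 further: luminescent beta-galactosidase reporter signal from transgenic T. cruzi replicating inside host cells; inhibitors lower the luminescence signal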", "assay_type": "functional, cell-based"}, "[12]": {"assay": "inhibitors of SNCA 5'UTR-driven reporter translation, confirmation, H4 neuroglioma cells, luminescence (AID 1988)", "assay_type": "functional, cell-based"}, "[13]": {"assay": "inhibitors of firefly luciferase expression or activity, dose response, H4 neuroglioma cells, luminescence (AID 1990)", "assay_type": "functional, cell-based"}, "[14]": {"assay": "microbe, parasite or virus in culture", "assay_type": "functional", "conditions": "Mycobacterium tuberculosis"}, "INS1": {"tested_on": "INS1", "assay": "beta cell apoptosis inhibitors, cytokine rescue, dose response, luminescence, retest (AID 449756);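 further: cell death triggered by IL-1 beta plus TNF-alpha plus IFN-gamma mixture; protective hits raise ATP signal compared with cytokine alone wells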", "assay_type": "functional, cell-based", "conditions": "Rattus norvegicus"}, "[15]": {"target": "Protein-tyrosine kinase 2-beta (Homo sapiens, UniProt Q14289)", "sequence (Q14289 whole entry)": "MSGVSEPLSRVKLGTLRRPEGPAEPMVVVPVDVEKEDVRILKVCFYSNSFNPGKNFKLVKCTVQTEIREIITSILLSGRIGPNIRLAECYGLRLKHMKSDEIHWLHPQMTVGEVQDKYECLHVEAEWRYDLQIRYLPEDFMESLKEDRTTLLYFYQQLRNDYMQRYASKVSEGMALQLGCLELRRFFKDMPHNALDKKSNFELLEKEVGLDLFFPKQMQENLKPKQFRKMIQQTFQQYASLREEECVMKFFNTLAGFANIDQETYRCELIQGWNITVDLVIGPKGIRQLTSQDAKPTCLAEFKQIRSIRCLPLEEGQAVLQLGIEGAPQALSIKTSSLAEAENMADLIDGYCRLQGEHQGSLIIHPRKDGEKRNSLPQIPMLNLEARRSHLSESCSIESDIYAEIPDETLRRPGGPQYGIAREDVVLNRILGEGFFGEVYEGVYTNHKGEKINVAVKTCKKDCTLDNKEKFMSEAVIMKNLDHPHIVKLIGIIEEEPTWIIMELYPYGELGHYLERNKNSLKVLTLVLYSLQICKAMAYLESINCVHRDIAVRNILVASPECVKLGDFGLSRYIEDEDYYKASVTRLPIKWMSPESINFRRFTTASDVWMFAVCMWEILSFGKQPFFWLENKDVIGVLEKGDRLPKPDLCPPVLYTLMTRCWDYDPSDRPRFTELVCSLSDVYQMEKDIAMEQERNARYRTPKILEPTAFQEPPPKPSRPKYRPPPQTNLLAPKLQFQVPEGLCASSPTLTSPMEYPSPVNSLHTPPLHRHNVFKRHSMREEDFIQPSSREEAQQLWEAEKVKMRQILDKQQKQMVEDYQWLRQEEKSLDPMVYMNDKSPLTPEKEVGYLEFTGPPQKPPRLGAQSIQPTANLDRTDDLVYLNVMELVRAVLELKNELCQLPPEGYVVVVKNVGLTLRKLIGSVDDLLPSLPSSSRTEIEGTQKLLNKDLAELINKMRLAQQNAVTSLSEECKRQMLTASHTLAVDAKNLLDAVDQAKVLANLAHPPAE"}, "[16]": {"assay": "A Cell Based Secondary Assay To Explore Cytotoxicity of Compounds that Sensitize Mycobacterium Tuberculosis to Beta-Lactam Antibiotics.", "assay_type": "functional"}, "[17]": {"target": "Heat shock protein HSP 90-alpha (Homo sapiens, UniProt P07900)", "assay_type": "functional, organism-based"}, "Cytochrome P450 2D6": {"target": "Cytochrome P450 2D6 (Homo sapiens, UniProt P10635)", "sequence (P10635 whole entry)": "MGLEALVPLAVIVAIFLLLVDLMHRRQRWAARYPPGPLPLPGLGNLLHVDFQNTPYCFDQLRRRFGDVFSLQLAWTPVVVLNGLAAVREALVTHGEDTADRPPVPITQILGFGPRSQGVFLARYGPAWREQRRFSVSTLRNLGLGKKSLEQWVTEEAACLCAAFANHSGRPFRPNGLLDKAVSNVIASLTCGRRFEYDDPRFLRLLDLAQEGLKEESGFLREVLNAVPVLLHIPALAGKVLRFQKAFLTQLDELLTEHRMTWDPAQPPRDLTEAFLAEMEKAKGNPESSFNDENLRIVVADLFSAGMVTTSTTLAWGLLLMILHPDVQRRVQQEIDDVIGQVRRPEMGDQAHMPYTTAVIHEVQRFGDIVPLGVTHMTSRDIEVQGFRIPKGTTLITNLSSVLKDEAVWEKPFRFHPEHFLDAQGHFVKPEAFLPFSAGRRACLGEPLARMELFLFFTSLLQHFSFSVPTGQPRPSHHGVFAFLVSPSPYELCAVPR", "assay": "qHTS Assay for Inhibitors and Substrates of Cytochrome P450 2D6. [Related pubchem assays: 410 ]", "assay_type": "ADME", "conditions": "read-out: Potency"}}, "note": "Calls of active or inactive are those of the source.", "data": [{"smiles": "COC(=O)c1ccc(O)c(Sc2cc(C(=O)OC)ccc2O)c1", "values": [{"measurement": "IC50", "setting": "Aminopeptidase N", "value": "33.1 µM (active)"}, {"measurement": "EC50", "setting": "[1]", "value": "13.6 µM (active)"}, {"measurement": "EC50", "setting": "[2]", "value": "> 20 µM (not active)"}]}, {"smiles": "CCOC(=O)CS(=O)(=O)c1nc2c(c(C(F)(F)F)n1)CCc1ccccc1-2", "values": [{"measurement": "IC50", "setting": "Bcl-2-related protein A1 [3]", "value": "> 100 µM (not active)"}, {"measurement": "IC50", "setting": "[4]", "value": "> 100 µM (not active)"}, {"measurement": "IC50", "setting": "Bcl-2-related protein A1 [5]", "value": "> 100 µM (not active)"}]}, {"smiles": "Cc1cccc(NC(=O)c2ccc([N+](=O)[O-])o2)c1", "values": [{"measurement": "IC50", "setting": "[6]", "value": "1.18 µM (active)"}, {"measurement": "EC50", "setting": "[7]", "value": "18 µM (active)"}, {"measurement": "EC50", "setting": "[8]", "value": "1.42 µM (active)"}, {"measurement": "CC50", "setting": "Vero", "value": "10 µM (active)"}]}, {"smiles": "CC(C)c1ccc(-n2c(-c3ccccc3)c[n+]3c2CCc2ccccc2-3)cc1", "values": [{"measurement": "EC50", "setting": "[9]", "value": "> 60 µM (not active)"}, {"measurement": "EC50", "setting": "[10]", "value": "> 120 µM (not active)"}, {"measurement": "EC50", "setting": "[11]", "value": "< 0.1 µM (active)"}, {"measurement": "EC50", "setting": "[12]", "value": "11.7 µM (active)"}, {"measurement": "EC50", "setting": "cells", "value": "0.041 µM (active)"}, {"measurement": "EC50", "setting": "[13]", "value": "9.52 µM (active)"}]}, {"smiles": "Fc1ccc(C[n+]2c(-c3ccccc3)cc(-c3ccccc3)cc2-c2ccccc2)cc1.[O-][Cl+3]([O-])([O-])[O-]", "values": [{"measurement": "EC50", "setting": "[9]", "value": "> 60 µM (not active)"}, {"measurement": "EC50", "setting": "[10]", "value": "35.3 µM (active)"}, {"measurement": "EC50", "setting": "[11]", "value": "< 0.1 µM (active)"}, {"measurement": "EC50", "setting": "[12]", "value": "> 120 µM (not active)"}, {"measurement": "EC50", "setting": "cells", "value": "0.053 µM (active)"}, {"measurement": "CC50", "setting": "[14]", "value": "> 40 µM (active)"}, {"measurement": "AC50", "setting": "INS1", "value": "2.98 µM (active)"}, {"measurement": "EC50", "setting": "[13]", "value": "11.2 µM (active)"}]}, {"smiles": "CC(C)(C)C(=O)Nc1nc2c(s1)COc1ccccc1-2", "values": [{"measurement": "IC50", "setting": "[15]", "value": "> 69.5 µM (not active)"}]}, {"smiles": "OCCOCCn1c(C2CCCN2c2nc(-c3ccc(F)cc3)cs2)nc2cc(Cl)c(Cl)cc21", "note": "(stereo not drawn)", "values": [{"measurement": "CC50", "setting": "[16]", "value": "37.6 µM (active)"}, {"measurement": "AC50", "setting": "[17]", "value": "6.11 µM (active)"}]}, {"smiles": "CC(C)[C@@]1(NC(=O)[C@H]2C[C@H]3c4cccc5[nH]cc(c45)C[C@@H]3N(C)C2)O[C@]2(O)[C@H]3CCCN3C(=O)[C@H](Cc3ccccc3)N2C1=O", "values": [{"measurement": "AC50", "setting": "Cytochrome P450 2D6", "value": "31.6 µM (inconclusive)"}]}]}
